In patent US20260337153A1, “IONIZABLE AMINE LIPIDS” (Intellia Therapeutics, Inc., priority 2023, published 2026):
Several values for one entry are separate records, joined by “and”; a condition that tells them apart may be missing. Equal values may be shown once. Read-outs that look alike come from different tables or passages of the source.

How the values were obtained:
Assay type in all cases: physicochemical
[1] = pKa of unformulated amine lipid by TNS fluorescence
Outline: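 Unformulated amine lipid was diluted from ethanol stock to approx. 100 μM in 0.1 M sodium phosphate buffers spanning pH 4.5–9.0 with TNS. Fluorescence read at ex 321/em 448 nm; normalized data fitted sigmoidally to give pKa.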

[2] = LNP encapsulation efficiency of RNA (Ribogreen fluorescence assay); settings: sgRNA:mRNA 1:2
Outline: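 RiboGreen fluorescence (ex 488/em 525 nm) measured total RNA in 1×TE with 0.2% Triton X-100 and free RNA in 1×TE alone, against standard curves of the starting RNA; encapsulation = (total − free)/total. Total RNA alternatively quantified after Triton disruption by RP-IP HPLC, UV 260 nm.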

[3] = LNP average particle size and polydispersity by dynamic light scattering; settings: sgRNA:mRNA 1:2
Outline: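 Z-average (intensity-based) and number-mean diameters plus PDI measured by DLS on LNP samples diluted in PBS. LNPs carried sgRNA and Cas9 mRNA at 1:2 w/w, with lipids at 50% ionizable lipid, 38% cholesterol, 9% DSPC and 3% PEG lipid (PEG2K-DMG, C13 Ether or C14 Ether).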

[4] = sodium phosphate buffer, Table 2, unformulated amine lipid, TNS, read-out: Lipid pKa
[5] = Table 3, Experiments 1-13, LNP 50% ionizable lipid, 38% cholesterol, 9% DSPC, 3% PEG2K-DMG
[6] = LNP with 50% ionizable lipid, 38% cholesterol, 9% DSPC, 3% C13 Ether (LNP #1, Compound 53: 3% PEG2K-DMG instead)
[7] = Table 3, Experiment 14, LNP with 3% C13 Ether

CCCCC/C=C\C/C=C\CCCCCCCC(=O)OCC(CCCCCCC(=O)OC(CCCCCCCC)CCCCCCCC)COC(=O)OCCCN(CC)CC (stereo not shown) [Compound 16, 2-((((3-(diethylamino)propoxy)carbonyl)oxy)methyl)-9-(heptadecan-9-yloxy)-9-oxononyl (9Z,12Z)-octadeca-9,12-dienoate]
pKa [1, 4]: 5.98
% E (encapsulation efficiency) [2, 5]: 99%
Number mean [3, 5]: 62 nm
PDI [3, 5]: 0.03
Z-avg [3, 5]: 68 nm

CCCCC/C=C\C/C=C\CCCCCCCCC(COC(=O)CCCCCC(=O)OC(CCCCCCCC)CCCCCCCC)COC(=O)NCCN(CC)CC (stereo not shown) [Compound 23, 1-((11Z,14Z)-2-((((2-(diethylamino)ethyl)carbamoyl)oxy)methyl)icosa-11,14-dien-1-yl) 7-(heptadecan-9-yl) heptanedioate]
pKa [1, 4]: 6.49
% E (encapsulation efficiency) [2, 5]: 92% and 95%
Number mean [3, 5]: 86 nm and 74 nm
PDI [3, 5]: 0.02
Z-avg [3, 5]: 90 nm and 81 nm

CCCCCCCCC(CCCCCCCC)OC(=O)CCCCCCC(=O)OCC(COC(=O)CCCCCCC(=O)OC(CCCCCCCC)CCCCCCCC)COC(=O)NCCCN(CC)CC [Compound 61]
pKa ([1]; sodium phosphate buffer, additional ionizable lipids (53-61), unformulated amine lipid, TNS, read-out: Lipid pKa): 7.4
% E (encapsulation efficiency) [2, 5]: 100%
Number mean [3, 5]: 39 nm
PDI [3, 5]: 0.16
Z-avg [3, 5]: 74 nm

CCCCCCCCC(CCCCCCCC)OC(=O)CCCCCCC(COC(=O)CCCC(=O)OC(CCCCCCCC)CCCCCCCC)COC(=O)OCCCN(CC)CC (stereo not shown) [Compound 8, 2-((((3-(diethylamino)propoxy)carbonyl)oxy)methyl)-9-(heptadecan-9-yloxy)-9-oxononyl heptadecan-9-yl glutarate]
pKa [1, 4]: 5.85
% E (encapsulation efficiency) [2, 5]: 98%
Number mean [3, 5]: 64 nm
PDI [3, 5]: 0.03
Z-avg [3, 5]: 69 nm

CCCCCCCCC(CCCCCCCC)OC(=O)CCCCC(=O)OCC(COC(=O)CCCCC(=O)OC(CCCCCCCC)CCCCCCCC)COC(=O)NCCN(CC)CC [Compound 68, O,O′-(2-((((2-(diethylamino)ethyl)carbamoyl)oxy)methyl)propane-1,3-diyl) di(heptadecan-9-yl) diadipate]
pKa ([1]; read-out: pKa): 6.4
% E (encapsulation efficiency) [2, 6]: 99%
Number mean (average particle size) [3, 6]: 63 nm
PDI (polydispersity index) [3, 6]: 0.01
Z-avg (average particle size) [3, 6]: 75 nm

CCCCC/C=C\C/C=C\CCCCCCCC(=O)OCC(CCCCCCCCC(=O)OC(CCCCCCCC)CCCCCCCC)COC(=O)NCCN(CC)CC (stereo not shown) [Compound 10, 2-((((2-(diethylamino)ethyl)carbamoyl)oxy)methyl)-11-(heptadecan-9-yloxy)-11-oxoundecyl (9Z,12Z)-octadeca-9,12-dienoate]
pKa [1, 4]: 6.37
% E (encapsulation efficiency) [2, 5]: 97%
Number mean [3, 5]: 83 nm
PDI [3, 5]: 0.04
Z-avg [3, 5]: 90 nm

CCCCCCC(CCCCCC)OC(=O)CCCC(=O)OCC(COC(=O)CCCC(=O)OC(CCCCCC)CCCCCC)COC(=O)NCCN(CC)CC [Compound 37, O,O′-(2-((((2-(diethylamino)ethyl)carbamoyl)oxy)methyl)propane-1,3-diyl) di(tridecan-7-yl) diglutarate]
pKa [1, 4]: 6.66
% E (encapsulation efficiency) [2, 5]: 99%
Number mean [3, 5]: 71 nm
PDI [3, 5]: 0.014
Z-avg [3, 5]: 78 nm

CCCCCCCCC(CCCCCCCC)OC(=O)CCCC(=O)OCC(COC(=O)CCCC(=O)OC(CCCCCCCC)CCCCCCCC)OC(=O)NCCN(CC)CC [Compound 35, O,O′-(2-(((2-(diethylamino)ethyl)carbamoyl)oxy)propane-1,3-diyl) di(heptadecan-9-yl) diglutarate]
pKa [1, 4]: 6.83
% E (encapsulation efficiency) [2, 7]: 99%
Number mean [3, 7]: 67 nm
PDI [3, 7]: 0.019
Z-avg [3, 7]: 76 nm
